Experimental data: ChEMBL document CHEMBL3745640, “Challenges in the Discovery of Indoleamine 2,3-Dioxygenase 1 (IDO1) Inhibitors” (J Med Chem, 2015)

What was measured:
[1] = target: T1, Indoleamine 2,3-dioxygenase 1 (Homo sapiens, UniProt P14902); test: Inhibition of IFN-gamma-stimulated IDO1 activity in human HeLa cells using L-tryptophan as substrate after 48 hrs by spectrophotometric analysis; format: cell-based
[2] = target: T1, Indoleamine 2,3-dioxygenase 1; test: Inhibition of N-terminal hexa-Histidine tagged human IDO1 expressed in Escherichia coli using L-tryptophan as substrate after 30 mins by HPLC analysis
[3] = Competitive inhibition of rabbit small intestine IDO1 by double reciprocal plot analysis in presence of L-tryptophan; set-up: species or system Oryctolagus cuniculus
[4] = target: T1, Indoleamine 2,3-dioxygenase 1; test: Inhibition of human IDO using L-tryptophan as substrate preincubated for 5 mins followed by substrate addition measured after 15 mins by spectrophotometric analysis
[5] = target: T1, Indoleamine 2,3-dioxygenase 1; test: Inhibition of human IDO1 in HEK293 cells after 20 hrs by plate reader assay; format: cell-based
[6] = target: T1, Indoleamine 2,3-dioxygenase 1; test: Inhibition of C-terminal 6His-tagged human IDO using L-tryptophan as substrate preincubated for 5 mins followed by substrate addition measured after 15 mins by spectrophotometric analysis
[7] = target: T1, Indoleamine 2,3-dioxygenase 1; test: Inhibition of N-terminal His-tagged human recombinant IDO1 expressed in Escherichia coli using tryptophan as substrate by UV-visible absorption spectroscopy
[8] = target: T1, Indoleamine 2,3-dioxygenase 1; test: Inhibition of IDO (unknown origin)
[9] = target: T1, Indoleamine 2,3-dioxygenase 1; test: Inhibition of N-terminal His-tagged human recombinant IDO1 expressed in Escherichia coli using L-tryptophan as substrate by methylene blue/ascorbate assay
[10] = target: T1, Indoleamine 2,3-dioxygenase 1; test: Inhibition of 6His-tagged human recombinant IDO1 expressed in Escherichia coli EC 539 using L-tryptophan as substrate after 1 hr by plate reader analysis
[11] = target: T1, Indoleamine 2,3-dioxygenase 1; test: Inhibition of N-terminal His-tagged human recombinant IDO1 expressed in Escherichia coli using L-tryptophan as substrate preincubated for 10 mins followed by substrate addition measured after 30 mins by plate reader analysis
[12] = target: T1, Indoleamine 2,3-dioxygenase 1; test: Inhibition of human recombinant IDO1 expressed in yeast IS20-2B using tryptophan as substrate by methylene blue/ascorbate assay
[13] = target: T1, Indoleamine 2,3-dioxygenase 1; test: Competitive inhibition of 6His-tagged human recombinant IDO expressed in Escherichia coli BL21DE3pLys
[14] = target: T1, Indoleamine 2,3-dioxygenase 1; test: Inhibition of human recombinant IDO1 using L-tryptophan as substrate after 15 mins by Dixon plot analysis
[15] = target: T1, Indoleamine 2,3-dioxygenase 1; test: Noncompetitive inhibition of human recombinant IDO1 expressed in Escherichia coli by Michaelis-Menton nonlinear regression plot analysis in presence of L-tryptophan

T1 sequence (P14902 whole entry): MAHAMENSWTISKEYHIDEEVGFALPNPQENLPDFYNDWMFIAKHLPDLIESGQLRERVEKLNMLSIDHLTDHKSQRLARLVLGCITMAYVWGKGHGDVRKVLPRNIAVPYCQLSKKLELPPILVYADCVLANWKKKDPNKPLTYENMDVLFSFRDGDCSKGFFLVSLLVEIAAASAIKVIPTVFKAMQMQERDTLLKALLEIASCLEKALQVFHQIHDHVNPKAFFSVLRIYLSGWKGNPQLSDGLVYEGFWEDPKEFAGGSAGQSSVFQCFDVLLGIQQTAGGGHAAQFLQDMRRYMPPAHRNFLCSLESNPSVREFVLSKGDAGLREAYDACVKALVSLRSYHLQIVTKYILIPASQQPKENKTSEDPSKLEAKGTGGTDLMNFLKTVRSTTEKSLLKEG

CCc1ccccc1Nc1cnn[nH]1
IC50 [1]: < 1000 nM

N#CC(Nc1ccc(F)c(Cl)c1)c1cc(Cl)ccc1O (stereo not drawn)
IC50 [2]: < 200 nM

N[C@@H](CC1=CCC=CC1)C(=O)O
Ki [3]: 230000 nM

NOCc1ccccc1
IC50 [4]: < 10000 nM

CC(C)CN(CC(C)C)c1ccc(C(CC(=O)O)C(F)(F)F)cc1NC(=O)Nc1ccc(F)cc1F (stereo not drawn)
IC50 [5]: 3 nM

O=C(Cc1ccccc1)Nc1ccc(CCOc2ccccc2-c2cnc[nH]2)cc1
IC50 [6]: < 1000 nM

Nc1oc2c(-c3ccnc(N4CCOCC4)c3)nccc2c1Nc1ccc(F)c(Cl)c1
IC50 [7]: < 200 nM

COc1cc(OC(=O)c2c(C)c(C)c(OC(=O)c3c(C)cc(O)c(C)c3O)c(C)c2OC)c(C)c(C)c1C(=O)O
IC50 [8]: 15000 nM

CCCC(CCC)Oc1c(Br)cc(-c2ccccc2-c2nnn[nH]2)cc1NC(=O)Nc1ccccc1F
IC50 [5]: 3 nM

CC1(C)CCC[C@]2(C)[C@H]3CC=C(C=O)CC(O)[C@]3(C=O)CC[C@@H]12 (stereo partly drawn)
IC50 [9]: 7700 nM

COc1cccc2c1C(=O)C1=C(C[C@H](Cn3cc(-c4ccccc4)nn3)O[C@@H]1C)C2=O
IC50 [10]: 6000 nM

COC1=CC(=O)c2oc(C)c(CO)c2C1=O
IC50 [11]: 240 nM

C/N=C(N)/N=C(\N)Nc1cc2ccccc2c2ccccc12
Ki [12]: 1500 nM

CN1C(=O)C(Cc2c[nH]c3ccccc23)NC1=S (stereo not drawn) [NECROSTATIN]
Ki [13]: 12000 nM

N=C1C=C(N)C(=O)c2[nH]c(=O)ccc21
Ki [14]: 4300 nM

CC1(C)CCC2=C(O1)c1ccccc1C(=O)C2=O [LAPACHONE]
Ki [15]: 100 nM

CN1C(=O)c2ccccc2-n2c(nc3ccccc3c2=O)C1[C@H](O)c1ccccc1 (stereo partly drawn)
IC50 [8]: 21000 nM

Cc1ccc(CC(=O)Nc2cc(-c3ccccc3-c3nnn[nH]3)ccc2N2CC3CC2CN3Cc2ccccc2)cc1 (stereo not drawn)
IC50 [5]: 5 nM
